In the supplement of paper PMC10307832:

Legend:
Test in all cases: relative viability (nuclei count vs DMSO), 5 days (fraction); higher = more cells survive
RO-3306 + Bortezomib = compound: C1=CC2=C(C=CC(=C2)C=C3C(=O)NC(=NCC4=CC=CS4)S3)N=C1 [RO-3306] + CC(C)C[C@H](NC(=O)[C@H](Cc1ccccc1)NC(=O)c1cnccn1)B(O)O [Bortezomib] (partner 0.002 µM)
In short: (§1)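 Relative viability equals treated-well nuclei counts divided by vehicle-well nuclei counts. Counts came from 4× images of lung cancer cell lines grown in 1536-well plates for 5 days after pin-tool dosing on the day after seeding. Dosing used one drug alone or a fixed anchor-drug dose plus five library-drug doses (not always all listed) in √10 steps, and values are medians of duplicate plates.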

RO-3306 + Tozasertib = compound: C1=CC2=C(C=CC(=C2)C=C3C(=O)NC(=NCC4=CC=CS4)S3)N=C1 [RO-3306] + Cc1cc(Nc2cc(N3CCN(C)CC3)nc(Sc3ccc(NC(=O)C4CC4)cc3)n2)n[nH]1 [Tozasertib] (partner 0.1 µM)
In short: as §1

RO-3306 + Olaparib = compound: C1=CC2=C(C=CC(=C2)C=C3C(=O)NC(=NCC4=CC=CS4)S3)N=C1 [RO-3306] + O=C(c1cc(Cc2n[nH]c(=O)c3ccccc23)ccc1F)N1CCN(C(=O)C2CC2)CC1 [Olaparib] (partner 8 µM)
In short: as §1

[1] = compound: O=S(=O)(c1ccccc1)N(CC(F)(F)F)c1ccc(C(O)(C(F)(F)F)C(F)(F)F)cc1 + COc1cccc2cc(-c3nc([C@H]4CC[C@H](C(=O)O)CC4)n4ncnc(N)c34)[nH]c12 [OSI-027] (partner 0.5 µM)
In short: as §1

Cell Line | relative viability (RO-3306 + Bortezomib; first compound 0.01 µM) | relative viability (RO-3306 + Bortezomib; first compound 0.03162 µM) | relative viability (RO-3306 + Bortezomib; first compound 0.1 µM) | relative viability (RO-3306 + Bortezomib; first compound 0.3162 µM) | relative viability (RO-3306 + Bortezomib; first compound 1 µM) | relative viability (RO-3306 + Tozasertib; first compound 0.01 µM) | relative viability (RO-3306 + Tozasertib; first compound 0.03162 µM) | relative viability (RO-3306 + Tozasertib; first compound 0.1 µM) | relative viability (RO-3306 + Tozasertib; first compound 0.3162 µM) | relative viability (RO-3306 + Tozasertib; first compound 1 µM) | relative viability (RO-3306 + Olaparib; first compound 0.01 µM) | relative viability (RO-3306 + Olaparib; first compound 0.03162 µM) | relative viability (RO-3306 + Olaparib; first compound 0.1 µM) | relative viability (RO-3306 + Olaparib; first compound 0.3162 µM) | relative viability (RO-3306 + Olaparib; first compound 1 µM) | relative viability ([1]; first compound 0.8 µM) | relative viability ([1]; first compound 2.53 µM) | relative viability ([1]; first compound 8 µM)
NCI-H1650 | 0.204 | 0.184 | 0.181 | 0.192 | 0.185 | 0.398 | 0.366 | 0.345 | 0.309 | 0.316 | 0.933 | 0.718 | 0.809 | 0.784 | 0.656 | 0.58 | 0.542 | 0.603
HOP-62 | 0.505 | 0.961 | 0.674 | 0.882 | 1.03 | 0.346 | 0.304 | 0.353 | 0.39 | 0.377 | 0.606 | 0.476 | 0.168 | 0.406 | 0.678 | 0.904 | 0.878 | 0.665
PC-3 [JPC-3] | 0.936 | 0.82 | 0.965 | 0.865 | 0.805 | 0.872 | 0.825 | 0.892 | 0.852 | 0.416 | 1.21 | 1.07 | 1.11 | 1.17 | 1.12 | 0.864 | 0.744 | 0.785
COR-L23 | 1.03 |  | 1.1 | 1.02 | 0.772 | 0.238 | 0.175 | 0.178 | 0.169 | 0.166 | 0.414 | 0.364 | 0.456 | 0.34 | 0.322 | 0.85 | 0.793 | 0.734
ABC-1 | 0.262 | 0.396 | 0.28 | 0.287 | 0.274 | 0.145 | 0.172 | 0.222 | 0.177 | 0.14 | 0.785 | 1.17 | 0.833 | 0.61 | 0.771 | 0.539 | 0.426 | 0.549
COR-L 105 | 0.792 | 0.718 | 0.777 | 0.822 | 0.622 | 0.361 | 0.337 | 0.329 | 0.379 | 0.32 | 0.661 | 0.798 | 0.633 | 0.715 | 0.601 | 0.763 | 0.581 | 0.715
NCI-H1915 | 1.07 | 0.895 | 1.09 | 1.01 | 0.488 | 0.498 | 0.406 | 0.416 | 0.394 | 0.427 | 0.276 | 0.235 | 0.263 | 0.246 | 0.255 | 0.643 | 0.646 | 0.649
PC-14 | 1.16 |  | 0.991 | 0.941 | 0.865 | 0.78 | 0.572 | 0.527 | 0.562 | 0.488 | 0.298 | 0.232 | 0.235 | 0.227 | 0.237 | 0.991 | 0.886 | 0.44
NCI-H2126 | 1.14 | 1.18 | 1.12 | 1.05 | 1 | 0.867 | 0.841 | 0.781 | 0.749 | 0.75 | 0.945 | 0.901 | 0.902 | 0.9 | 0.932 | 0.819 | 0.673 | 0.717
